# Laboratory results reported in patent US8809343B2, “Pyrimidine derivative, preparation method and use thereof” (Fudan University, priority 2008, dated 2014).
# Where two headings read alike, the source gives them in different places.
# How the values were obtained:
# HIV-1 IIIB strain = assay: Anti-HIV activity: protection of HIV-infected MT-4 cells from virus-induced cell lesions; type: cell-based
# Protocol: (§1) Anti-virus activity of cells in vitro was determined by Rega Institute for Medical of […] Katholleke University, consisting mainly: inhibitory activity towards HIV-infected MT-4 cells and cell toxicity. The method is described below: exert the compound on the HIV-infected ME-4 cells, and determine the protection of the drug on the cell lesions induced by HIV at varied HIV-infection intervals, calculate the half effective concentration IC50, the required concentration that protect 50% of cells from cell lesions induced by HIV. Toxicity determination is carried out in parallel with anti-HIV activity experiments, also in the cultured MT-4 cells, determine the CC50, the concentration that leads 50% of uninfected cells to cell lesions, and calculate the selectivity index SI=CC50/IC50 with the MTT method.
# (§2) Anti-HIV activity of various compounds is monitored by the inhibitory efficiency of drugs on the cell lesions induced by HIV. Carry out cell culture with MT-4 cells. The adopted virus strains are HIV-1 IIIB strain and drug-resistant viral strain of […].
# (§3) The detailed operation is as follows: the compound is dissolved with DMSO or water and diluted with phosphate buffer saline, 3×10^5 MT-4 cells are cultured with 100 μL various concentrations of compounds for 1 h, then 100 μL suitable virus dilution is added to the compound, and the cells are cultured at 37° C. for 1 h. After being washed for 3 times, the cells are suspended again in the culture media containing or not compounds individually. Subsequently, the cells are transferred to the atmosphere containing 5% CO2 and cultured for 7 days at 37° C., and culture media containing or not compounds are used to replace or supplement the culture solution on the third day after infection. Kinds of culture conditions should be duplicated. The cell lesions caused by virus are monitored with reverse light microscopy everyday. Typically, the virus dilution applied in the present experiments generally cause cell lesion on the fifth day after infection. […] It should be emphasized that, when the compound is poorly water-soluble and can only be dissolved in DMSO, the ratio of DMSO to water is generally below 10% (the final concentration of DMSO in MT-4 cell culture media is smaller than 2%). Because DMSO can influence the anti-virus activity of the tested compounds, blank tests on the solution containing the same concentration of DMSO should be conducted in parallel. Additionally, the final concentration of DMSO is far below the concentration required to influence the replication of HIV-1 in T cells.
# MT-4 cells = assay: Cell toxicity in uninfected MT-4 cells (MTT method); type: cell-based
# Protocol: as §1, §3
# [1] = as above; type: cell-based; conditions: human
# Protocol: as §1, §3
# [2] = tested on: drug-resistant viral strain of L103N+Y181C; assay: Anti-HIV activity in MT-4 cells, drug-resistant viral strain; type: cell-based, HIV-1; conditions: MT-4 cells, Table 1; read-out: EC50 103N + 181C
# Protocol: as §1, §2, §3
# [3] = MT-4 cells, Table 3, read-out: EC50 HIV-1(IIIB)
# [4] = MT-4 cells, Table 1, read-out: EC50 HIV-1(IIIB)
# [5] = Human immunodeficiency virus 1, IIIB, MT4, MT-4 cells, Table 1, read-out: EC50 HIV-1(IIIB)
# [6] = Human immunodeficiency virus 1, IIIB, MT4, MT-4 cells, Table 2, read-out: EC50 WT(IIIB)
# [7] = HIV-1 IIIB, MT-4 cells, Table 3
# [8] = Human immunodeficiency virus 1, IIIB, MT4, read-out: EC50 HIV-1(IIIB)
smiles,measurement,setting,value
N#Cc1ccc(Nc2nc(Oc3ccc(Cl)cc3)c3ccccc3n2)cc1 [Compound 40],EC50,HIV-1 IIIB strain; [3],0.167 µM
same,CC50,MT-4 cells; Table 3,> 396 µM
COc1nc(Nc2ccc(C#N)cc2)nc(Oc2cccc3cccnc23)c1C [Compound 8],EC50,HIV-1 IIIB strain; [4],0.0178 µM
same,CC50,MT-4 cells; Table 1,31.8 µM
"Cc1ccnc2c1NC(=O)c1cccnc1N2C1CC1 [NVP, nevirapine, reference compound]",EC50,HIV-1 IIIB strain; [5],0.0751 µM
same,EC50,HIV-1 IIIB strain; [6],0.0751 µM
same,CC50 at 7 days,[1]; Table 1,5.41 µM
same,CC50 at 7 days,[1]; Table 3,> 15 µM
N#Cc1ccc(Nc2nc(S(=O)(=O)c3ccccc3)c3ccccc3n2)cc1 [Compound 51],EC50,HIV-1 IIIB strain; [3],0.589 µM
same,CC50,MT-4 cells; Table 3,> 215 µM
N#Cc1ccc(Nc2nccc(Oc3ccc4cc(Br)ccc4c3Br)n2)cc1 [Compound 13],EC50,HIV-1 IIIB strain; [4],0.0046 µM
same,EC50,[2],> 50.4 µM
same,CC50,MT-4 cells; Table 1,51.1 µM
Cc1c(Oc2ccnc(Nc3ccc(C#N)cc3)n2)ccc2ccccc12 [Compound 10],EC50,HIV-1 IIIB strain; [4],0.00346 µM
same,EC50,[2],11 µM
same,CC50,MT-4 cells; Table 1,114 µM
N#Cc1ccc(Nc2nc(Oc3ccccc3)c3ccccc3n2)cc1 [Compound 30],"SI (Selectivity index, the ratio of CC50/IC50)",HIV-1 IIIB strain; [7],>411
same,EC50,HIV-1 IIIB strain; [8],0.887 µM
same,CC50 at 7 days,"[1]; uninfected MT-4 cells, Table 3",> 365 µM
Cc1cnc(Nc2ccc(C#N)cc2)nc1Oc1cccc2cccnc12 [Compound 5],EC50,HIV-1 IIIB strain; [4],0.0058 µM
same,CC50,MT-4 cells; Table 1,19.9 µM
Cc1cc(Br)c(Oc2nc(Nc3ccc(C#N)cc3)nc3ccccc23)c(Br)c1 [Compound 35],EC50,HIV-1 IIIB strain; [3],0.015 µM
same,CC50,MT-4 cells; Table 3,23.4 µM
COc1cc(C#N)cc(OC)c1Oc1nc(Nc2ccc(C#N)cc2)nc2ccccc12 [Compound 41],EC50,HIV-1 IIIB strain; [3],0.0022 µM
same,CC50,MT-4 cells; Table 3,> 93.1 µM
"Cc1cn([C@H]2C[C@H](N=[N+]=[N-])[C@@H](CO)O2)c(=O)[nH]c1=O [DDN/AZT, reference compound]",EC50,HIV-1 IIIB strain; [3],0.00517 µM
same,CC50,MT-4 cells; Table 3,> 93.5 µM
Cc1cc(Br)cc(Br)c1Oc1nc(Nc2ccc(C#N)cc2)nc2ccccc12 [Compound 32],"SI (Selectivity index, the ratio of CC50/IC50)",HIV-1 IIIB strain; [7],8917
same,EC50,HIV-1 IIIB strain; [8],0.0176 µM
same,CC50 at 7 days,"[1]; uninfected MT-4 cells, Table 3",157 µM
COc1cc(C#N)cc(OC(C)C)c1Oc1nc(Nc2ccc(C#N)cc2)nc2ccccc12 [Compound 50],EC50,HIV-1 IIIB strain; [3],0.0067 µM
same,CC50,MT-4 cells; Table 3,> 65.8 µM
Cc1cc2ccccc2cc1Oc1ccnc(Nc2ccc(C#N)cc2)n1 [Compound 11],EC50,HIV-1 IIIB strain; [4],0.0023 µM
same,EC50,[2],> 70.9 µM
same,CC50,MT-4 cells; Table 1,71.2 µM
N#Cc1ccc(Nc2nc(Oc3ccc(Br)cc3)c3ccccc3n2)cc1 [Compound 26],"SI (Selectivity index, the ratio of CC50/IC50)",HIV-1 IIIB strain; [7],894
same,EC50,HIV-1 IIIB strain; [8],0.263 µM
same,CC50 at 7 days,"[1]; uninfected MT-4 cells, Table 3",235 µM
N#Cc1ccc(Nc2nc(Oc3ccc(F)cc3)c3ccccc3n2)cc1 [Compound 38],EC50,HIV-1 IIIB strain; [3],0.156 µM
same,CC50,MT-4 cells; Table 3,310 µM
Cc1ccccc1Oc1nc(Nc2ccc(C#N)cc2)nc2ccccc12 [Compound 25],"SI (Selectivity index, the ratio of CC50/IC50)",HIV-1 IIIB strain; [7],1148
same,EC50,HIV-1 IIIB strain; [8],0.0937 µM
same,CC50 at 7 days,"[1]; uninfected MT-4 cells, Table 3",108 µM
Cc1c(Cl)nc(Nc2ccc(C#N)cc2)nc1Oc1cccc2cccnc12 [Compound 6],EC50,HIV-1 IIIB strain; [4],0.0257 µM
same,CC50,MT-4 cells; Table 1,44.7 µM
CCOc1cc(C#N)cc(OCC)c1Oc1nc(Nc2ccc(C#N)cc2)nc2ccccc12 [Compound 46],EC50,HIV-1 IIIB strain; [3],0.0029 µM
same,CC50,MT-4 cells; Table 3,> 99.3 µM
Cc1ccc(Oc2nc(Nc3ccc(C#N)cc3)nc3ccccc23)cc1 [Compound 31],"SI (Selectivity index, the ratio of CC50/IC50)",HIV-1 IIIB strain; [7],8091
same,EC50,HIV-1 IIIB strain; [8],0.042 µM
same,CC50 at 7 days,"[1]; uninfected MT-4 cells, Table 3",340 µM
COc1cc(C#N)cc(Cl)c1Oc1nc(Nc2ccc(C#N)cc2)nc2ccccc12 [Compound 48],EC50,HIV-1 IIIB strain; [3],0.0056 µM
same,CC50,MT-4 cells; Table 3,> 173 µM
N#Cc1ccc(Nc2nc(Sc3ccccc3)c3ccccc3n2)cc1 [Compound 44],EC50,HIV-1 IIIB strain; [3],0.752 µM
same,CC50,MT-4 cells; Table 3,494 µM
CCCOc1cc(C#N)cc(OCC)c1Oc1nc(Nc2ccc(C#N)cc2)nc2ccccc12 [Compound 47],EC50,HIV-1 IIIB strain; [3],0.0032 µM
same,CC50,MT-4 cells; Table 3,> 66.7 µM
CCOc1cc(C#N)cc(OC)c1Oc1nc(Nc2ccc(C#N)cc2)nc2ccccc12 [Compound 52],EC50,HIV-1 IIIB strain; [3],0.0026 µM
same,CC50,MT-4 cells; Table 3,> 130 µM
N#Cc1ccc(Nc2nc(Oc3ccc(Cl)cc3Cl)c3ccccc3n2)cc1 [Compound 37],EC50,HIV-1 IIIB strain; [3],0.028 µM
same,CC50,MT-4 cells; Table 3,114 µM
N#Cc1ccc(Nc2nc(Oc3c(Cl)cc(Cl)cc3Cl)c3ccccc3n2)cc1 [Compound 42],EC50,HIV-1 IIIB strain; [3],0.0035 µM
same,CC50,MT-4 cells; Table 3,244 µM
Cc1cccc(C)c1Oc1nc(Nc2ccc(C#N)cc2)nc2ccccc12 [Compound 43],EC50,HIV-1 IIIB strain; [3],0.046 µM
same,CC50,MT-4 cells; Table 3,> 640 µM
Cc1cc(C)c(Oc2nc(Nc3ccc(C#N)cc3)nc3ccc(Cl)cc23)c(C)c1 [Compound 54],EC50,HIV-1 IIIB strain; [3],0.0018 µM
same,CC50,MT-4 cells; Table 3,147 µM
CCOc1cc(C#N)cc(Cl)c1Oc1nc(Nc2ccc(C#N)cc2)nc2ccccc12 [Compound 49],EC50,HIV-1 IIIB strain; [3],0.0059 µM
same,CC50,MT-4 cells; Table 3,> 594 µM
N#Cc1ccc(Nc2nc(Oc3ccccc3Cl)c3ccccc3n2)cc1 [Compound 39],EC50,HIV-1 IIIB strain; [3],0.057 µM
same,CC50,MT-4 cells; Table 3,343 µM
Cc1cccc(Oc2nc(Nc3ccc(C#N)cc3)nc3ccccc23)c1 [Compound 27],"SI (Selectivity index, the ratio of CC50/IC50)",HIV-1 IIIB strain; [7],>563
same,EC50,HIV-1 IIIB strain; [8],0.625 µM
same,CC50 at 7 days,"[1]; uninfected MT-4 cells, Table 3",> 352 µM
N#Cc1ccc(Nc2nc(Oc3c(Br)cc(Br)cc3Br)c3ccccc3n2)cc1 [Compound 34],EC50,HIV-1 IIIB strain; [3],0.023 µM
same,CC50,MT-4 cells; Table 3,71 µM
Cc1cc(C)c(Oc2nc(Nc3ccc(C#N)cc3)nc3ccccc23)c(C)c1 [Compound 36],EC50,HIV-1 IIIB strain; [3],0.023 µM
same,CC50,MT-4 cells; Table 3,> 34.1 µM
CNc1nc(Nc2ccc(C#N)cc2)nc(Oc2cccc3cccnc23)c1C [Compound 7],EC50,HIV-1 IIIB strain; [4],0.0158 µM
same,CC50,MT-4 cells; Table 1,36.5 µM
Cc1cc(C#N)cc(C)c1Oc1nc(Nc2ccc(C#N)cc2)nc2ccccc12 [Compound 45],EC50,HIV-1 IIIB strain; [3],0.0036 µM
same,CC50,MT-4 cells; Table 3,> 172 µM
COc1ccc(Oc2nc(Nc3ccc(C#N)cc3)nc3ccccc23)cc1 [Compound 28],"SI (Selectivity index, the ratio of CC50/IC50)",HIV-1 IIIB strain; [7],>1810
same,EC50,HIV-1 IIIB strain; [8],0.187 µM
same,CC50 at 7 days,"[1]; uninfected MT-4 cells, Table 3",> 3400 µM
COc1ccccc1Oc1nc(Nc2ccc(C#N)cc2)nc2ccccc12 [Compound 29],"SI (Selectivity index, the ratio of CC50/IC50)",HIV-1 IIIB strain; [7],>6186
same,EC50,HIV-1 IIIB strain; [8],0.03 µM
same,CC50 at 7 days,"[1]; uninfected MT-4 cells, Table 3",> 186 µM
Cc1cc(C#N)ccc1Oc1nc(Nc2ccc(C#N)cc2)nc2ccccc12 [Compound 33],EC50,HIV-1 IIIB strain; [3],0.028 µM
same,CC50,MT-4 cells; Table 3,> 333 µM
"CC(C)Nc1cccnc1N1CCN(C(=O)c2cc3cc(NS(C)(=O)=O)ccc3[nH]2)CC1 [DLV, Delavirdine, reference compound]","SI (Selectivity index, the ratio of CC50/IC50)","HIV-1 IIIB strain; HIV-1 IIIB, MT-4 cells, Table 1",12
same,EC50,HIV-1 IIIB strain; [5],0.072 µM
same,EC50,HIV-1 IIIB strain; [6],0.072 µM
same,"SI (Selectivity index, the ratio of CC50/IC50)","HIV-1 IIIB strain; WT(IIIB), Table 2",12
same,CC50 at 7 days,"[1]; uninfected MT-4 cells, Table 1",0.86 µM
